Literature values as cited in patent US20040033517A1, “Compositions and methods relating to endothelial cell signaling using the protease activated receptor (PAR1)” (priority 2002, published 2004).

Conditions: systemically and locally induced sepsis models; Zisman 1997, Bone-Larson 2000; cited from earlier work

## MCP-1: monocyte chemoattractant protein-1, chemokine administered in cited sepsis models
  Effect of administration in sepsis models: protective
